Experimental data: ChEMBL document CHEMBL5108024, “New C-6 functionalized quinoline NorA inhibitors strongly synergize with ciprofloxacin against planktonic and biofilm growing resistant Staphylococcus aureus strains” (Eur J Med Chem, 2022)
Values after ≈ are worked out from the molar mass of the structure shown. Values joined by “and” are separate entries in the source; they are usually repeats but may differ in a detail not shown here. Equal values may be shown once.

How the values were obtained:
Staphylococcus aureus [1] = experiment: Synergistic antibiofilm activity against Staphylococcus aureus 1199B overexpressing norA and harboring A116E grlA mutant assessed as biofilm eradication by measuring ciprofloxacin MBEC at 3.13 ug/ml incubated for 24 hrs by Calgary biofilm device assay; assay type: functional; details: dose 3.13 µg/ml
[2] = Cytotoxicity against human THP-1 cells assessed as cell viability incubated for 24 hrs by MTT assay; assay type: toxicity, cell-based
Staphylococcus aureus [3] = experiment: Synergistic antibacterial activity against ciprofloxacin-resistant Staphylococcus aureus 1199B overexpressing norA and harboring A116E grlA mutant assessed as fold reduction in ciprofloxacin MIC at 6.25 uM by broth microdilution method; assay type: functional
[4] = Cytotoxicity against human A549 cells assessed as cell viability at 3.13 ug/ml incubated for 24 hrs by MTT assay relative to control; assay type: toxicity, cell-based; details: at 3.13 µg/mL, read-out: Activity
Staphylococcus aureus [5] = experiment: Synergistic antibacterial activity against Staphylococcus aureus 1199B overexpressing norA and harboring A116E grlA mutant assessed as four fold minimum potentiating concentration incubated in presence of ciprofloxacin by checkerboard assay; assay type: functional
[6] = Cytotoxicity against human THP-1 cells assessed as cell viability at 3.13 ug/ml incubated for 24 hrs by MTT assay relative to control; assay type: toxicity, cell-based; details: at 3.13 µg/mL, read-out: Activity
Staphylococcus aureus [7] = experiment: Synergistic antibiofilm activity against wild type Staphylococcus aureus 1199 assessed as biofilm eradication by measuring ciprofloxacin MBEC at 3.13 ug/ml incubated for 24 hrs by Calgary biofilm device assay; assay type: functional; details: dose 3.13 µg/ml
[8] = Selectivity index, ratio of CC50 for cytotoxicity against human THP-1 cells to MPC for synergistic antibacterial activity against Staphylococcus aureus 1199B overexpressing norA and harboring A116E grlA mutant assessed as four fold minimum potentiating concentration; assay type: toxicity, cell-based
Staphylococcus aureus [9] = experiment: Antibacterial activity against ciprofloxacin-resistant Staphylococcus aureus 1199B overexpressing norA and harboring A116E grlA mutant assessed as inhibition of bacterial growth by broth microdilution method; assay type: functional
Staphylococcus aureus [10] = experiment: Inhibition of EtBr efflux in ciprofloxacin-resistant Staphylococcus aureus 1199B overexpressing norA and harboring A116E grlA mutant assessed as reduction in fluorescence intensity at 10 uM measured for 5 mins by microplate reader analysis relative to control; assay type: functional
Staphylococcus aureus [11] = experiment: Synergistic antibacterial activity against Staphylococcus aureus K2378 overexpressing norA assessed as fold reduction in ciprofloxacin MIC at 0.2 to 12.5 ug/ml by checkerboard assay; assay type: functional; details: dose 0.2-12.5 µg/ml
[12] = Cytotoxicity against human THP-1 cells assessed as cell viability at 12.5 ug/ml incubated for 24 hrs by MTT assay relative to control; assay type: toxicity, cell-based; details: at 12.5 µg/mL, read-out: Activity
[13] = Cytotoxicity against human A549 cells assessed as cell viability at 12.5 ug/ml incubated for 24 hrs by MTT assay relative to control; assay type: toxicity, cell-based; details: at 12.5 µg/mL, read-out: Activity
Staphylococcus aureus [14] = experiment: Antibacterial activity against Staphylococcus aureus K2378 harbouring norA promoting and coding region assessed as inhibition of bacterial growth by broth microdilution method; assay type: functional
Staphylococcus aureus [15] = experiment: Inhibition of EtBr efflux in ciprofloxacin-resistant Staphylococcus aureus 1199B overexpressing norA and harboring A116E grlA mutant assessed as reduction in fluorescence intensity at 50 uM measured for 5 mins by microplate reader analysis relative to control; assay type: functional
Staphylococcus aureus [16] = experiment: Antibacterial activity against norA deleted Staphylococcus aureus K1902 assessed as inhibition of bacterial growth by broth microdilution method; assay type: functional
Staphylococcus aureus [17] = experiment: Antibacterial activity against ciprofloxacin-susceptible wild type Staphylococcus aureus 1199 assessed as inhibition of bacterial growth by broth microdilution method; assay type: functional
Staphylococcus aureus [18] = experiment: Synergistic antibiofilm activity against wild type Staphylococcus aureus 1199 assessed as biofilm eradication by measuring fold reduction in ciprofloxacin MBEC at 3.13 ug/ml incubated for 24 hrs by Calgary biofilm device assay; assay type: functional; details: dose 3.13 µg/ml
Staphylococcus aureus [19] = experiment: (§1) Potentiation of ciprofloxacin-induced antibacterial activity against Staphylococcus aureus 1199B overexpressing norA and harboring A116E grlA mutant assessed as time for post-antibiotic effect at 6.25 ug/ml preincubated for 1 hr followed by compound washout and measured after 5 hrs; assay type: functional; details: dose 6.25 µg/ml
Staphylococcus aureus [20] = experiment: (§2) Synergistic bactericidal activity against Staphylococcus aureus 1199B overexpressing norA and harboring A116E grlA mutant assessed as reduction in bacterial count by measuring log reduction in colony forming count per ml at 6.25 ug/ml incubated for 4 hrs in presence of ciprofloxacin at 0.25 to 1 times MIC by time kill assay; assay type: functional; details: dose 6.25 µg/ml
Staphylococcus aureus [21] = experiment: Synergistic antibacterial activity against Staphylococcus aureus 1199B overexpressing norA and harboring A116E grlA mutant assessed as eight fold minimum potentiating concentration incubated in presence of ciprofloxacin by checkerboard assay; assay type: functional
Staphylococcus aureus [22] = experiment: Synergistic antibiofilm activity against norA deleted Staphylococcus aureus K1902 assessed as biofilm eradication by measuring ciprofloxacin MBEC at 3.13 ug/ml incubated for 24 hrs by Calgary biofilm device assay; assay type: functional; details: dose 3.13 µg/ml
Staphylococcus aureus [23] = experiment: Synergistic antibiofilm activity against Staphylococcus aureus 1199B overexpressing norA and harboring A116E grlA mutant assessed as biofilm eradication by measuring fold reduction in ciprofloxacin MBEC at 3.13 ug/ml incubated for 24 hrs by Calgary biofilm device assay; assay type: functional; details: dose 3.13 µg/ml
Staphylococcus aureus [24] = experiment: as §2, with “6” for “4”; assay type: functional; details: dose 6.25 µg/ml
Staphylococcus aureus [25] = experiment: as §1, with “as” for “as time for”, “effect by measuring log reduction in colony forming unit per ml” for “effect”; assay type: functional; details: dose 6.25 µg/ml
Staphylococcus aureus [26] = experiment: Antibiofilm activity against Staphylococcus aureus 1199B overexpressing norA and harboring A116E grlA mutant assessed as biofilm eradication incubated for 24 hrs by Calgary biofilm device assay; assay type: functional
Staphylococcus aureus [27] = experiment: Antibiofilm activity against norA deleted Staphylococcus aureus K1902 assessed as biofilm eradication incubated for 24 hrs by Calgary biofilm device assay; assay type: functional
Staphylococcus aureus [28] = experiment: Antibiofilm activity against wild type Staphylococcus aureus 1199 assessed as biofilm eradication incubated for 24 hrs by Calgary biofilm device assay; assay type: functional

Structure (SMILES) | MBEC (Staphylococcus aureus [1]) [µg/mL] | CC50 at 24 h [2] [µg/mL] | fold change (FC) (Staphylococcus aureus [3]) | viability at 24 h, 3.13 ug/ml [4] [%] | viability at 24 h, 3.13 ug/ml [6] [%] | MBEC (Staphylococcus aureus [7]) [µg/mL] | MIC (Staphylococcus aureus [9]) | inhibition (Staphylococcus aureus [10]) [%] | fold change (FC) (Staphylococcus aureus [11]) | viability at 24 h, 12.5 ug/ml [12] [%] | viability at 24 h, 12.5 ug/ml [13] [%] | MIC (Staphylococcus aureus [14]) [µg/mL] | inhibition (Staphylococcus aureus [15]) [%] | MIC (Staphylococcus aureus [16]) [µg/mL] | MIC (Staphylococcus aureus [17]) [µg/mL] | other results
CCCOc1ccc(-c2cc(OCCN3CCCCCC3)c3cc(OCCC)ccc3n2)cc1 | 2.5 | > 3.13 | 8 | 100 | 70.3 | 0.07 | > 50 µg/mL and > 540 µM | 78.8 | 4 | 38.4 | 84.5 | > 50 | 82.3 | > 50 | > 50 | MPC (Staphylococcus aureus [5]): 0.2 µg/mL; selectivity ratio [8]: > 15
CCCOc1ccc(-c2cc(OCCN(CC)CC)c3cc(Oc4ccccc4)ccc3n2)cc1 | 1.25 | > 3.13 | >=8 | 80.1 | 77.3 | 0.07 | > 50 µg/mL and > 531 µM | 76.1 | 4 | 8.2 | 84.8 | 25 (≈ 53.1 µM) | 80.9 | 25 (≈ 53.1 µM) | > 50 | fold change (FC) (Staphylococcus aureus [18]): 286; Time (Staphylococcus aureus [19]): 1.2 h; log(activity) (Staphylococcus aureus [20]): 3; MPC (Staphylococcus aureus [21]): 1.56 µg/mL; MBEC (Staphylococcus aureus [22]): 40 µg/mL; fold change (FC) (Staphylococcus aureus [23]): 512; log(activity) (Staphylococcus aureus [24]): 2; log(activity) (Staphylococcus aureus [25]): 1
O=C(O)c1cn(C2CC2)c2cc(N3CCNCC3)c(F)cc2c1=O [CIPROFLOXACIN] | – | – | – | – | – | – | 10 µg/mL (≈ 30.2 µM) | – | – | – | – | 0.63 (≈ 1.9 µM) | – | 0.15 (≈ 0.453 µM) | 0.08 (≈ 0.241 µM) | MBEC (Staphylococcus aureus [26]): 640 µg/mL; MBEC (Staphylococcus aureus [27]): 40 µg/mL; MBEC (Staphylococcus aureus [28]): 20 µg/mL
